Results from patent US20090215742A1, “AMIDE […]” (PFIZER, INC., priority 2005, published 2009).

Target: T1, HSP-90 (Homo sapiens, UniProt P07900)
T1 construct: fused on or other part: 6-His tag at the C-terminus
Experiment: HSP-90 SPA (scintillation proximity assay) competition binding assay, displacement of tritiated propyl-Geldanamycin
Conditions: for inhibition at 1 µM: read-out: % inhibition @ 1 μM; for inhibition at 10 µM: read-out: % inhibition @ 10 μM
Procedure: Compounds of the present invention were evaluated for potency against HSP-90 using a SPA (scintillation proximity assay) competition binding assay. Briefly, either full length or N-terminal HSP-90 that contains a 6-His tag on its C-terminus binds to copper on Yttrium-silicate scintillant beads via the His-tag. Tritiated propyl-Geldanamycin (pGA), whose structure is shown below, is an analog of a natural inhibitor of HSP-90 called Geldanamycin.
Tritiated pGA, which contains a tritiated propyl-amine group added at the #17 position, binds HSP-90 and brings the isotope into proximity with the beads. […] The beta signal emitted from the isotope excites the scintillant, which creates a measurable signal. As competitive compounds are added to the assay mixture, they compete with bound tritiated pGA at the ATP-binding site on the N-terminal of HSP-90. When a compound displaces the labeled pGA, the signal is reduced (the beta-particles are no longer in proximity with the bead). This reduction in signal is used to quantify the extent to which the inhibitor/compound is competitive with pGA.
Typical reaction solutions contained 30 nM HSP-90 and 200 nM ^3H-pGA in binding buffer (100 mM Hepes, pH 7.5 and 150 mM KCl). […] Inhibitors were added to the HSP-90/^3H-pGA solutions at eleven different concentrations for Ki determinations. […] To determine percent inhibition, the compound was tested at 1 and 10 μM. The final DMSO in the samples was 4%. Copper-Ysi beads (Amersham, #RPNQ0096) that have been diluted in binding buffer were added to each well to give a final concentration of 100 μg/well. The plates were sealed, covered with a foil-covered lid and shaken for 30 minutes at room temperature. The beads were allowed to settle for 30 minutes after which the plates were counted using a Packard TopCount NXT instrument. This procedure has also been adapted for medium throughput using a Beckman Biomek FX. Samples were run in duplicate and on two separate days to assure an accurate value of Ki.
For Ki determinations, the corrected cpm's (actual cpm's minus background) were plotted vs. inhibitor concentration using GraphPad Prism software. […] The IC50 was then used to calculate the Ki by using the Cheng-Prusoff equation: […]
This is normally true when the observed IC50 is […] the HSP-90 concentration. For a tight binding inhibitor, the following equation can be applied: […]
EL and ELo are the radioligand-HSP-90 complexes in the presence and absence of inhibitor, respectively. EL/ELo represents the fractional signal in the presence of inhibitor. Io, Eo, and Lo are the inhibitor, HSP-90, and radioligand concentrations, respectively.

`O=C(c1ccc(O)cc1O)N1CCOCC(O)(COC2CCCC2)C1` (stereo not shown) [Example 61, 4-({6-[(cyclopentyloxy)methyl]-6-hydroxy-1,4-oxazepan-4-yl}carbonyl)benzene 1,3-diol] gave an inhibition at 1 µM of 37.7% and an inhibition at 10 µM of 75.6%.
For `O=C(c1ccc(O)cc1O)N1CCCCC1c1nccs1` (stereo not shown) [Example 62, 4-{[2-(1,3-thiazol-2-yl)piperidin-1-yl]carbonyl}benzene 1,3-diol], the inhibition at 1 µM was 12% and the inhibition at 10 µM was 64.4%.
`O=C(c1ccc(O)cc1O)N1CCCCC1` [Example 63, 4-(piperidin-1-ylcarbonyl)benzene-1,3-diol] was tested, and the inhibition at 1 µM was 32.2% and the inhibition at 10 µM was 72%.
With `COCc1nccc(C2CCCN(C(=O)c3ccc(O)cc3O)C2)n1` (stereo not shown) [Example 64, 4-({3-[2-(methoxymethyl)pyrimidin-4-yl]piperidin-1-yl}carbonyl)benzene-1,3-diol] the inhibition at 1 µM was 5.9% and the inhibition at 10 µM was 59.2%.
Molecule `O=C(c1ccc(O)cc1O)N1CCC(CCc2ccccc2)C1` (stereo not shown) [Example 65, 4-{[3-(2-phenylethyl)pyrrolidin-1-yl]carbonyl}benzene-1,3-diol] has an inhibition at 1 µM of 69.7% and an inhibition at 10 µM of 87%.
`C[C@@H](c1ccccc1)N(C)C(=O)c1ccc(O)cc1O` [Example 66, 2,4-dihydroxy-N-methyl-N-(1-phenylethyl)benzamide] showed an inhibition at 1 µM of 55.5% and an inhibition at 10 µM of 84.8%.
`C[C@H](c1ccccc1)N(C)C(=O)c1ccc(O)cc1O` [Example 67, 2,4-dihydroxy-N-methyl-N-(1-phenylethyl)benzamide] showed an inhibition at 1 µM of -0.8% and an inhibition at 10 µM of 35.4%.
`O=C(c1ccc(O)cc1O)N1CCC(Oc2ccc(Cl)cc2)CC1` [Example 68, 4-{[4-(4-chlorophenoxy)piperidin-1-yl]carbonyl}benzene-1,3-diol] showed an inhibition at 1 µM of 37.2% and an inhibition at 10 µM of 78.6%.
`O=C(c1ccc(O)cc1O)N1CCC(Oc2cccc(Cl)c2)CC1` [Example 69, 4-{[4-(3-chlorophenoxy)piperidin-1-yl]carbonyl}benzene-1,3-diol] showed an inhibition at 1 µM of 33.9% and an inhibition at 10 µM of 76.6%.
`O=C(c1ccc(O)cc1O)N1CCC(c2ccc(F)cc2)CC1` [Example 70, 4-{[4-(4-fluorophenyl)piperidin-1-yl]carbonyl}benzene-1,3-diol] was tested, and the inhibition at 1 µM was 40.2% and the inhibition at 10 µM was 79.1%.
In the case of `O=C(c1ccc(O)cc1O)N1CCC(Oc2ccccc2)CC1` [Example 71, 4-[(4-phenoxypiperidin-1-yl)carbonyl]benzene-1,3-diol], the inhibition at 1 µM is reported as 37.3% and the inhibition at 10 µM is reported as 79.3%.
`COc1ccccc1OC1CCN(C(=O)c2ccc(O)cc2O)CC1` [Example 72, 4-{[4-(2-methoxyphenoxy)piperidin-1-yl]carbonyl}benzene-1,3-diol] gave an inhibition at 1 µM of 13.2% and an inhibition at 10 µM of 62.4%.
`Cc1ccccc1C1CCCN1C(=O)c1ccc(O)cc1O` (stereo not shown) [Example 73, 4-{[2-(2-methylphenyl)pyrrolidin-1-yl]carbonyl}benzene-1,3-diol] showed an inhibition at 1 µM of 82.7% and an inhibition at 10 µM of 91.6%.
In the case of `Cc1ccc(OC2CCN(C(=O)c3ccc(O)cc3O)CC2)cc1` [Example 74, 4-{[4-(4-methylphenoxy)piperidin-1-yl]carbonyl}benzene-1,3-diol], the inhibition at 1 µM is reported as 47.7% and the inhibition at 10 µM is reported as 80.7%.
`Cc1cc(C)c2c(c1)CCC1(CCN(C(=O)c3ccc(O)cc3O)CC1)O2` [Example 75, 4-[(6,8-dimethyl-3,4-dihydro-1′H-spiro[chromene-2,4′-piperidin]-1′-yl)carbonyl]benzene 1,3-diol] gave an inhibition at 1 µM of 51.6% and an inhibition at 10 µM of 82%.
Molecule `O=C(c1ccc(O)cc1O)N1CCC(O)(c2ccc(Cl)cc2)CC1` [Example 76, 4-{[4-(4-chlorophenyl)-4-hydroxypiperidin-1-yl]carbonyl}benzene-1,3-diol] has an inhibition at 1 µM of 48.4% and an inhibition at 10 µM of 81%.
`O=C(c1ccc(O)cc1O)N1CCC(O)(c2ccccc2)CC1` [Example 77, 4-[(4-hydroxy-4-phenylpiperidin-1-yl)carbonyl]benzene-1,3-diol] showed an inhibition at 1 µM of 44.6% and an inhibition at 10 µM of 79.6%.
In the case of `O=C(c1ccc(O)cc1O)N1CCC(O)(c2ccc(Cl)c(C(F)(F)F)c2)CC1` [Example 78, 4-({4-[4-chloro-3-(trifluoromethyl)phenyl]-4-hydroxypiperidin-1-yl}carbonyl)benzene-1,3-diol], the inhibition at 1 µM is reported as 17.7% and the inhibition at 10 µM is reported as 68.1%.
`O=C(c1ccc(O)cc1O)N1CCC2(C=Cc3cc(Cl)ccc3O2)CC1` [Example 79, 4-[(6-chloro-1′H-spiro[chromene-2,4′-piperidin]-1′-yl)carbonyl]benzene-1,3-diol] gave an inhibition at 1 µM of 57.7% and an inhibition at 10 µM of 85.1%.
`O=C(c1ccc(O)cc1O)N1CCC2(CC1)OCc1ccccc12` [Example 80, 4-(1′H,3H-spiro[2-benzofuran-1,4′-piperidin]-1′-ylcarbonyl)benzene-1,3-diol] showed an inhibition at 1 µM of 42% and an inhibition at 10 µM of 81.3%.
`C[C@H](c1cccc2ccccc12)N(C)C(=O)c1ccc(O)cc1O` [Example 81, 2,4-dihydroxy-N-methyl-N-[1-(1-naphthyl)ethyl]benzamide] showed an inhibition at 1 µM of 29% and an inhibition at 10 µM of 73.8%.
`Cc1ccc2c(c1)C=CC1(CCN(C(=O)c3ccc(O)cc3O)CC1)O2` [Example 82, 4-[(6-methyl-1′H-spiro[chromene-2,4′-piperidin]-1′-yl)carbonyl]benzene-1,3-diol] was tested, and the inhibition at 1 µM was 62.8% and the inhibition at 10 µM was 85.3%.
`O=C(c1ccc(O)cc1O)N1CCC(c2ccnc(C(F)(F)F)n2)CC1` [Example 83, 4-({4-[2-(trifluoromethyl)pyrimidin-4-yl]piperidin-1-yl}carbonyl)benzene-1,3-diol] gave an inhibition at 1 µM of 10.1% and an inhibition at 10 µM of 35%.
Work on `O=C(c1ccc(O)cc1O)N1CCCC1c1ccc(Cl)cc1` (stereo not shown) [Example 84, 4-{[2-(4-chlorophenyl)pyrrolidin-1-yl]carbonyl}benzene-1,3-diol] yielded an inhibition at 1 µM of 76.2% and an inhibition at 10 µM of 89.8%.
Molecule `O=C1CC2(CCN(C(=O)c3ccc(O)cc3O)CC2)Oc2ccccc21` [Example 85] has an inhibition at 1 µM of 52.1% and an inhibition at 10 µM of 79.6%.
`O=C(c1ccc(O)cc1O)N1CCC(c2ncccn2)CC1` [Example 86, 4-[(4-pyrimidin-2-ylpiperidin-1-yl)carbonyl]benzene-1,3-diol] was tested, and the inhibition at 1 µM was 23.9% and the inhibition at 10 µM was 59.9%.
`O=C(c1ccc(O)cc1O)N1CCC(COc2cccc(Cl)c2)C1` (stereo not shown) [Example 87, 4-({3-[(3-chlorophenoxy)methyl]pyrrolidin-1-yl}carbonyl)benzene-1,3-diol] gave an inhibition at 1 µM of 36.7% and an inhibition at 10 µM of 65%.
`O=C(c1ccc(O)cc1O)N1CCCN(c2nc3cc(Cl)ccc3o2)CC1` [Example 88, 4-{[4-(5-chloro-1,3-benzoxazol-2-yl)-1,4-diazepan-1-yl]carbonyl}benzene-1,3-diol] was tested, and the inhibition at 1 µM was 4.3% and the inhibition at 10 µM was 42.9%.
In the case of `O=C(c1ccc(O)cc1O)N1CCC(COc2ccc(F)cc2Cl)C1` (stereo not shown) [Example 89, 4-({3-[(2-chloro-4-fluorophenoxy)methyl]pyrrolidin-1-yl}carbonyl)benzene-1,3-diol], the inhibition at 1 µM is reported as 45.7% and the inhibition at 10 µM is reported as 77.8%.
`O=C(c1ccc(O)cc1O)N1CCCC1` [Example 90, 4-(pyrrolidin-1-ylcarbonyl)benzene-1,3-diol] was tested, and the inhibition at 1 µM was 23.2% and the inhibition at 10 µM was 65.4%.
`O=C1CCCN1Cc1nnc2n1CCN(C(=O)c1ccc(O)cc1O)CC2` [Example 91, 1-{[7-(2,4-dihydroxybenzoyl)-6,7,8,9-tetrahydro-5H-[1,2,4]triazolo[4,3-d][1,4]diazepin-3-yl]methyl}pyrrolidin-2-one] was tested, and the inhibition at 1 µM was -7.3% and the inhibition at 10 µM was 12.2%.
For `COc1ccccc1-c1nnc([C@H]2CCCN2C(=O)c2ccc(O)cc2O)o1` [Example 92, 4-({2-[5-(2-methoxyphenyl)-1,3,4-oxadiazol-2-yl]pyrrolidin-1-yl}carbonyl)benzene-1,3-diol], the inhibition at 1 µM was 9% and the inhibition at 10 µM was 22.4%.
In the case of `O=C(c1ccc(O)cc1O)N1CCC(c2ccccc2)C1` (stereo not shown) [Example 93, 4-[(3-phenylpyrrolidin-1-yl)carbonyl]benzene-1,3-diol], the inhibition at 1 µM is reported as 34.5% and the inhibition at 10 µM is reported as 76.1%.
`COC(=O)C1CCN(C(=O)c2ccc(O)cc2O)C1` (stereo not shown) [Example 94, methyl 1-(2,4-dihydroxybenzoyl)pyrrolidine-3-carboxylate] showed an inhibition at 1 µM of 21.1% and an inhibition at 10 µM of 62.1%.
`O=C(c1ccc(O)cc1O)N1CCC(c2ccc(F)cc2)C1` (stereo not shown) [Example 95, 4-{[3-(4-fluorophenyl)pyrrolidin-1-yl]carbonyl}benzene-1,3-diol] was tested, and the inhibition at 1 µM was 22.7% and the inhibition at 10 µM was 70.3%.
